In US20090053192A1, “TISSUE-NONSPECIFIC ALKALINE PHOSPHATASE (TNAP) ACTIVATORS AND USES THEREOF” (BURNHAM INSTITUTE FOR MEDICAL RESEARCH, priority 2007, published 2009):

What was measured:
[1] = target: T1, TNAP (Homo sapiens, UniProt P05186); assay: optimized TNAP activation assay, CAPS buffer pH 9.8, CDP-Star luminescence; assay type: biochemical
T1 sequence (P05186 18-502 limits assumed): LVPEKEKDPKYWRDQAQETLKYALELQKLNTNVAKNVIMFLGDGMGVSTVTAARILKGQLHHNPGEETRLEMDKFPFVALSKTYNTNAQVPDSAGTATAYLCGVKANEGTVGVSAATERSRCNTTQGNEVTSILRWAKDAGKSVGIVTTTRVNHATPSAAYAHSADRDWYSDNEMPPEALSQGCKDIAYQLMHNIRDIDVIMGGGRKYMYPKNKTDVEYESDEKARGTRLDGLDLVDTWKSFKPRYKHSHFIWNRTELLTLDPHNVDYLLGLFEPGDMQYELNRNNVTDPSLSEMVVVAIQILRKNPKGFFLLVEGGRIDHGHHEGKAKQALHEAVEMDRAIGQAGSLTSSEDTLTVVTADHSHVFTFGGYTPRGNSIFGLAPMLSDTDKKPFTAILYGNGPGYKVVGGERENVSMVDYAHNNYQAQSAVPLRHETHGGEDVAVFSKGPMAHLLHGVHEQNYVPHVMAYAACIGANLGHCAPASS
Method: The activity of TNAP (1/800) was measured in 50 mM CAPS, pH 9.8, containing 1 mM MgCl2, 20 uM ZnCl2 and varied concentrations of CDP-Star. The luminescence signal was obtained using 384-well white small-volume plates (Greiner 784075) on a PE Envision plate reader. Experimental data were analyzed using the Michaelis-Menten equation.
The activity of TNAP (1/800) was measured in 50 mM CAPS, pH 9.8, containing 1 mM MgCl2, 20 μM ZnCl2 and 25 μM CDP-Star® in the presence of serially diluted DEA, pH adjusted to 9.8. The luminescence signal, obtained using 384-well white small-volume plate (Greiner 784075) on a PE Envision plate reader, was fitted to 4-parameter sigmoidal equation. The best-fit curve is shown as a solid line.
The luminescent assay was further optimized to ensure its maximum sensitivity to compounds activating TNAP. […] This assay can provide a more accurate measure of phosphatase activity, as opposed to transphosphorylation, activity that might be more relevant to in vivo conditions. The previously utilized assay was performed in the presence DEA at a concentration of CDP-star equal to its Km value. However, the appropriate concentration of the components was needed for the new buffer. TNAP activity vs. its concentration was tested as a function of TNAP concentrations (FIG. 7).
It was observed that TNAP activity was linearly dependent over an extended range of TNAP concentrations. A 1/800 concentration of TNAP was used for further work; this concentration is 1315-fold above the limit of detection of the assay. To ensure that substrate concentration is correctly adjusted in the new assay, TNAP activity was tested in the presence of varied CDP-star® concentrations (FIG. 8). It was decided to fix the concentration of CDP-star® at 25 uM (˜Km) to provide enough sensitivity even for compounds competitive with the CDP-star® substrate. In the next experiment, the activation of TNAP was tested with DEA (FIG. 9).
600 mM DEA (pH 9.8) was chosen as the positive control for TNAP activation screening. […]

[2] = target: T1, TNAP; assay: luminescent CDP-star-based TNAP assay, MLSMR screen (PubChem AID 518)
[3] = TNAP 1/800, 50 mM CAPS pH 9.8, Michaelis-Menten
[4] = calculated as (100-X)/100, where X is % inhibition, luminescence

SMILES | TNAP Activation Factor [2, 4] | also measured
COC1(c2ccc(Cl)c(OP(=O)([O-])[O-])c2)OOC12C1CC3CC2CC(Cl)(C3)C1.[Na+].[Na+] (centres unmarked) [CDP-star, Disodium 2-chloro-5-(4-methoxyspiro{1,2-dioxetane-3,2′-(5′-chloro)-ricyclo[3.3.1.13,7]decan}-4-yl)-1-phenyl phosphate] | – | Km [1, 3]: 21.9 ± 3.4 µM; Vmax [1, 3]: 10300±408 RLU
COc1ccc(CCNC(=O)c2cc(-c3ccccc3O)[nH]n2)cc1OC [drawing 75, N-(3,4-dimethoxyphenethyl)-5-(2-hydroxyphenyl)-1H-pyrazole-3-carboxamide] | – | TNAP Activation Factor ([2]; Table 3): 1.9
NC1=NC(c2cn(-c3ccccc3)nc2-c2cccs2)n2c(nc3ccccc32)N1 (centres unmarked) [Compound 28] | 1.5 | –
OCCN1CCOCCN(CCO)CCN(CCO)CC1 [drawing 74, 2,2′,2″-(1-oxa-4,7,10-triazacyclododecane-4,7,10-triyl)ethanol] | – | TNAP Activation Factor ([2]; Table 3): 1.9
N=c1c2c(-c3ccccc3)c(-c3ccccc3)n(Cc3ccccc3)c2ncn1CCCn1ccnc1 [Compound 3] | 4.3 | –
OCCN(CCO)c1cc2c(N3CCCCC3)nc(N(CCO)CCO)nc2c(N2CCCCC2)n1 [Compound 18] | 1.6 | –
NC1=NC(c2cn(-c3ccccc3)nc2-c2cccs2)n2c(nc3ccccc32)N1 (centres unmarked) [drawing 72] | – | TNAP Activation Factor ([2]; Table 3): 1.5
OCCCN1c2ccccc2Nc2nnc(-c3ccccc3)cc21 [drawing 70, 3-(3-phenylpyridazino[3,4-b]quinoxalin-5(10H)-yl)propan-1-ol] | – | TNAP Activation Factor ([2]; Table 3): 1.5
Cc1nn2c(O)cc(C(C)(C)C)nc2c1-c1ccccc1 [drawing 67, 5-tert-butyl-2-methyl-3-phenylpyrazolo[1,5-a]pyrimidin-7-ol] | – | TNAP Activation Factor ([2]; Table 3): 1.8
O=C(CN1C(=O)CCC1=O)Nc1nc(-c2ccccn2)cs1 [drawing 29, 2-(2,5-dioxopyrrolidin-1-yl)-N-[4-(pyridine-2-yl)thiazol-2-yl]acetamide] | – | TNAP Activation Factor ([2]; Table 1): 2.0
O=S(=O)(CCc1ncc(-c2ccccc2)o1)c1ccc2ccccc2c1 [Compound 21] | 1.6 | –
C1CCC(c2nn3c(-c4[nH]nc5c4CCC5)nnc3s2)CC1 [Compound 26] | 1.5 | –
OCCN1CCOCCN(CCO)CCN(CCO)CC1 [Compound 10] | 1.9 | –
CC(C)n1c(NCc2nc3ccccc3n2C)nc2ccccc21 [Compound 7] | 2.0 | –
Cc1cc(C2N=C(N)Nc3nc4ccccc4n32)c(C)n1-c1ccccc1Cl (centres unmarked) [Compound 6] | 2.2 | –
O=C(Nc1cccc(OC(F)(F)F)c1)c1ccc(Br)o1 [Compound 19] | 1.6 | –
Clc1ccc(COC(Cn2ccnc2)c2ccc(Cl)cc2Cl)c(Cl)c1 (centres unmarked) [Compound 17] | 1.7 | –
c1nc(-c2[nH]nc3c2CCC3)n2nc(C3CCCCC3)sc12 [6-cyclohexyl-3-(2,4,5,6-tetrahydrocyclopenta[c]pyrazol-3-yl)-[1,2,4]triazole[3,4-b][1,3,4]thiadiazole] | – | TNAP Activation Factor ([2]; Table 3): 1.5
OCCN(CCO)c1nc(N2CCCCC2)c2nc(N(CCO)CCO)nc(N3CCCCC3)c2n1 [2,2′,2″,2′″-[4,8-di(piperidin-1-yl)pyrimido[5,4-d]pyrimidine-2,6-diyl]bis(azanetriyl)tetraethanol] | – | TNAP Activation Factor ([2]; Table 3): 1.6
OCCNCCO [DEA, diethanolamine] | – | Maximal activation, higher activity than in the absence of DEA ([1]; TNAP 1/800, 25 μM CDP-Star, pH 9.8): 9.4 fold
N=c1c2c(-c3ccccc3)c(-c3ccccc3)n(Cc3ccccc3)c2ncn1CCCn1ccnc1 [drawing 64, 3-[3-(1H-imidazol-1-yl)propyl]-7-benzyl-5,6-diphenyl-3H-pyrrolo[2,3-d]pyrimidin-4(7H)-imine] | – | TNAP Activation Factor ([2]; Table 3): 4.3
COc1ccc(CCNC(=O)c2cc(-c3ccccc3O)[nH]n2)cc1OC [Compound 12] | 1.9 | –
Nc1[nH]nc2nc(NCc3ccccc3)c3c(c12)CCN(Cc1ccccc1)C3 [drawing 47, N^5,7-dibenzyl-6,7,8,9-tetrahydro-2H-pyrazolo[3,4-c][2,7]napythyridine-1,5-diamine] | – | TNAP Activation Factor ([2]; Table 2): 1.9
Cc1cc(C2N=C(N)Nc3nc4ccccc4n32)c(C)n1-c1ccccc1Cl (centres unmarked) [drawing 66] | – | TNAP Activation Factor ([2]; Table 3): 2.2
O=C(CN(Cc1ccco1)C(=O)CNS(=O)(=O)c1ccc(F)cc1)NCc1ccc(F)cc1 [drawing 76, N-[2-(4-fluorobenzylamino)-2-oxoethyl]-2-(4-fluorphenylsulfonamido)-N-(furan-2-ylmethyl)acetamide] | – | TNAP Activation Factor ([2]; Table 3): 1.7
CC(C)n1c(NCc2nc3ccccc3n2C)nc2ccccc21 [drawing 45, 1-isopropyl-N-[(1-methyl-1H-benzo[d]imidazol-2-yl)methyl]-1H-benzo[d]imidazol-2-amine] | – | TNAP Activation Factor ([2]; Table 2): 2.0
NC1=NC2(CCC(c3ccccc3)CC2)n2c(nc3ccccc32)N1 (centres unmarked) [Compound 20] | 1.6 | –
O=C(CN(Cc1ccco1)C(=O)CNS(=O)(=O)c1ccc(F)cc1)NCc1ccc(F)cc1 [Compound 16] | 1.7 | –
CCN(CC)c1ccc2cc(-c3nc4ccccc4n3C)c(=O)oc2c1 [Compound 4] | 2.8 | –
Oc1c(C(c2ccccn2)N2CCOCC2)ccc2cccnc12 (centres unmarked) [drawing 68, 7-[morpholino(pyridin-2-yl)methyl]quinolin-8-ol] | – | TNAP Activation Factor ([2]; Table 3): 1.7

Further lines, with some results ahead:

TNAP Activation Factor [2, 4] | SMILES | also measured
1.7 | Oc1c(C(c2ccccn2)N2CCOCC2)ccc2cccnc12 (centres unmarked) [Compound 15] | –
1.8 | Cc1nn2c(O)cc(C(C)(C)C)nc2c1-c1ccccc1 [Compound 13] | –
1.9 | Nc1[nH]nc2nc(NCc3ccccc3)c3c(c12)CCN(Cc1ccccc1)C3 [Compound 11] | –
2.0 | O=C(CN1C(=O)CCC1=O)Nc1nc(-c2ccccn2)cs1 [Compound 9] | –
1.5 | OCCCN1c2ccccc2Nc2nnc(-c3ccccc3)cc21 [Compound 25] | –
1.6 | COc1cccc(N(C(=O)c2cc[nH]n2)C2(C(=O)Nc3c(C)cccc3C)CCCCC2)c1 [Compound 23] | –
1.6 | CCc1ccc(-c2nc(CN3CCC(C(=O)NCCN(CC)c4ccccc4)CC3)c(C)o2)cc1 [Compound 22] | –
